The values that follow come from EP0815110B1.

Where two headings read alike, the source gives them in different places. Some results are limits rather than exact numbers.

What all share (type): biochemical, Ratte
The target of assay [1] is NADH-Ubichinon-1-Reduktase (Rattus norvegicus, UniProt A6K8N6+P03889+Q641Y2). Kind of assay: NADH-ubiquinone-1 reductase (complex I) test, spectrophotometric at 340 nm.
The next assay addresses T1, Succinat-Dehydrogenase (Rattus norvegicus, UniProt P21913+Q641Z9+Q6PCT8+Q920L2).
T1 construct: Hemmung des Komplexes I bzw; II der mitochondrialen Atmungskette in Rattenhirn-Homogenaten; from tissue; host or cells: rat brain homogenate
Description: Succinate dehydrogenase (complex II) activity. To be noted: Rattenhirn-Homogenate.

For assay [2], the target named is NADH-Cytochrom-c-Reduktase (Rattus norvegicus, UniProt A6K8N6+P03889+Q641Y2). Description: NADH-cytochrome-c reductase test (complex I/III), spectrophotometric at 550 nm. The method, then: (§1) Die Isolierung von SMP's aus Rattenleber erfolgte nach (Ragan et al., 1987; Rickwood et al., 1987). • 8.1 Hemmung des Komplexes I der Atmungskette in SMP's durch N-Me-TaClo Komplex I (NADH-Dehydrogenase) der mitochondrialen Atmungskette katalysiert im ersten Schritt eine NADH-Oxidation. Die dabei freiwerdenden Elektronen werden in einem zweiten Schritt auf Coenzym Q bzw. Ubichinon übertragen. Ein typischer Testansatz (modifiziert nach Ragan et al., 1987) enthält dabei 20 mM K-Phosphat Puffer, pH 8.0, 0.2 mM NADH, 1 mM KCN, SMP (ca. 0.3 mg Protein/ml) und +/- 250 µM N-Me-TaClo (25 mM methanolische Stammlösung). Der Start der Reaktion erfolgt durch Zugabe von 50 µM Ubichinon-1. Die Messung der Reaktion erfolgt spektralphotometrisch bei einer Wellenlänge von 340 nm während der linearen Phase. Bei Zugabe von N-Me-TaClo erfolgt eine 100proz. Hemmung der Ubichinon-Reduktion (s.a. Tabelle 1). • 8.2 Hemmung der elektronenübertragenden Reaktionen auf Coenzym Q: NADH-Cytochrom-c-Reduktase und Succinat-Cytochrom-c-Reduktase Coenzym Q wird sowohl durch freiwerdende Elektronen bei der Komplex-I-katalysierten NADH-Oxidation, als auch bei der Komplex-II (Succinat-Coenzym-Q-Reduktase) -katalysierten Reaktion reduziert. Messungen dieser Reaktionswege mit anschließendem Elektronenfluß über den Komplex III bis zur Cytochrom-c-Reduktion lassen sich mittels folgender Tests untersuchen und durch die hier vorgestellten halogenierten β-Carbolinderivate (im folgenden am Beispiel von N-Me-TaClo) hemmen: • NADH-Cytochrom-c-Reduktase-Test (modifiziert nach Sottocasa et al., 1967) Ein typischer Testansatz enthält 25 mM K-Phosphat-Puffer, pH 7.5, 0.2 mM NADH, 0.1 mM Cytochrom-c, 0.5 mM KCN und +/- 250 µM N-Me-TaClo (25 mM methanolische Stammlösung). Die Messung der Reaktion erfolgt spektralphotometrisch bei einer Wellenlänge von 550 nm während der linearen Phase. Bei Zugabe von N-Me-Taclo erfolgt eine 100proz. Hemmung der Reaktion (s.a. Tabelle 1). • - Succinat-Cytochrom-c-Reduktase-Test (modifiziert nach Sottocasa et al., 1967) Ein typischer Testansatz enthält 55 mM K-Phosphat-Puffer, pH 7.5, 3 mM Na-Succinat, 0.1 mM Cytochrom c, +/- 250 µM N-Me-TaClo (25 mM methanolische Stammlösung) und 0.5 mM KCN. Gestartet wird die Reaktion mit SMP (ca. 0.3 mg Protein/ml). Die Messung der Reaktion erfolgt spektralphotometrisch bei einer Wellenlänge von 550 nm während der linearen Phase. Bei Zugabe von N-Me-TaClo erfolgt eine 100proz. Hemmung der Reaktion (s. auch Tabelle 1). • - Einsatz der halogenierten β-Carboline als Hemmstoffe der NADH- bzw. Succinat-gekoppelten Oxidation; Polarographische Messungen der Enzymaktivitäten an SMP's ("submitochondrial particles") Bei der polarographischen Messung wird die Aktivität der Atmungskette in ihrer Gesamtheit ausgehend von der NADH-Oxidation (Komplex I) bzw. Succinat-Oxidation (Komplex II) bis zur O2-Reduktion (Komplex IV) bestimmt. Als Maß der Aktivität wird der O2-Verbrauch bestimmt. Der Test wird unter Verwendung einer Clark-Sauerstoffelektrode (Rank Brothers, England) bei 30°C in 2 ml Puffer (50 mM K-Phosphat, pH 7.4, 250 mM Saccharose) und 0.15 mg SMP-Protein/ml durchgeführt. Nach 5 minütiger Vorinkubation ± Inhibitor wird die Messung mit NADH (Endkonzentration 0.28 mM) bzw. Succinat (Endkonzentration 20 mM) gestartet. Bei der Succinat-gekoppelten Oxidation werden die SMP's vorher nach Krueger et al., (1993) mit Malonat aktiviert.
Sequence of NADH-Cytochrom-c-Reduktase (Q641Y2 34-463): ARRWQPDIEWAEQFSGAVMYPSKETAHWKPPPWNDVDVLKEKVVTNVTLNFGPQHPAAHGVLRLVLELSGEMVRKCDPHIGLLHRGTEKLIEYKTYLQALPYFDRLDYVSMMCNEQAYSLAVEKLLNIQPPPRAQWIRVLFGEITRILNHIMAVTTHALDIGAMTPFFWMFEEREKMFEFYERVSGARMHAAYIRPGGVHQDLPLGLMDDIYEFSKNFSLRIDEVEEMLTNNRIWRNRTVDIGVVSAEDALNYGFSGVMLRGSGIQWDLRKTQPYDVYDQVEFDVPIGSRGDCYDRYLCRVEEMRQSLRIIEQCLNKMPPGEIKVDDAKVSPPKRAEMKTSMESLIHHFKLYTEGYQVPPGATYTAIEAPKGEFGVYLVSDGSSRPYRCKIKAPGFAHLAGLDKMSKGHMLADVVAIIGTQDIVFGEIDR
Sequence of NADH-Cytochrom-c-Reduktase (P03889 whole entry): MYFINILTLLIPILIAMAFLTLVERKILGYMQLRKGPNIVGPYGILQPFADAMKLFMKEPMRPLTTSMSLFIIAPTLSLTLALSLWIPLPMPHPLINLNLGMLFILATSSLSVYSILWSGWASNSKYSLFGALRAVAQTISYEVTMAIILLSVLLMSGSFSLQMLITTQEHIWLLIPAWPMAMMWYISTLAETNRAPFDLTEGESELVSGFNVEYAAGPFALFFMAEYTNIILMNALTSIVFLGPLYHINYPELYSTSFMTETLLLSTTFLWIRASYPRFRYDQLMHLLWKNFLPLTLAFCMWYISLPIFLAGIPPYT
Sequence of NADH-Cytochrom-c-Reduktase (A6K8N6 entry or part of it): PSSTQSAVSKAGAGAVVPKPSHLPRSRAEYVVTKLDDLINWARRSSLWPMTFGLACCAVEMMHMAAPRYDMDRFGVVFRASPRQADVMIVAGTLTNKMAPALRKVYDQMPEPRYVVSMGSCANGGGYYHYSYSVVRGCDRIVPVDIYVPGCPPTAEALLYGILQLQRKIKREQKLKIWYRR

The target in the next assay is NADH-Oxidase (Rattus norvegicus, UniProt A6K8N6+P03889+Q641Y2). Description: NADH oxidase activity of complex I of the mitochondrial respiratory chain.
Assay [3] relates to Succinat-Cytochrom-c-Reduktase. Description: Succinate-cytochrome-c reductase test (complex II/III), spectrophotometric at 550 nm. As to the method:
as §1, with “Succinat-Oxidation (Komplex II) bis zur O2-Reduktion (Komplex IV) bestimmt. Als Maß der Aktivität wird der O2-Verbrauch bestimmt. Der Test wird unter Verwendung einer Clark-Sauerstoffelektrode (Rank Brothers, England) bei 30°C in 2 ml Puffer (50 mM K-Phosphat, pH 7.4, 250 mM Saccharose) und 0.15 mg SMP-Protein/ml durchgeführt. Nach 5 minütiger Vorinkubation ± Inhibitor wird die Messung mit NADH (Endkonzentration 0.28 mM) bzw. Succinat (Endkonzentration 20 mM) gestartet. Bei der Succinat-gekoppelten Oxidation werden die SMP's vorher nach Krueger et al., (1993) mit Malonat aktiviert.” left out

The target in another assay is Cytochrom c Oxidase (Rattus norvegicus, UniProt P00406+P05503). Kind of assay: Cytochrome c oxidase (complex IV) activity. The settings on record: 500 µM TaClo, Rattenhirn-Homogenate.
Where [4] appears, read: bei 500 µmol, Rattenhirn-Homogenate, read-out: Komplex-I-Hemmung Inhibierungsrate (in %) bei gegebener Konzentration (in µmol).
The mark [5] stands for this setting: bei 250 µmol, read-out: Komplex-II-Hemmung Inhibierungsrate (in %) bei gegebener Konzentration (in µmol).
[6] abbreviates: bei 500 µmol, read-out: Komplex-II-Hemmung Inhibierungsrate (in %) bei gegebener Konzentration (in µmol).
Where [7] appears, read: read-out: Inhibierungsrate durch TaClo.

Sequence of NADH-Ubichinon-1-Reduktase (P03889 whole entry): as the sequence (P03889 whole entry) above
Sequence of NADH-Ubichinon-1-Reduktase (Q641Y2 34-463): as the sequence (Q641Y2 34-463) above
Sequence of NADH-Ubichinon-1-Reduktase (A6K8N6 entry or part of it): as the sequence (A6K8N6 entry or part of it) above
T1 sequence (Q920L2 35-656): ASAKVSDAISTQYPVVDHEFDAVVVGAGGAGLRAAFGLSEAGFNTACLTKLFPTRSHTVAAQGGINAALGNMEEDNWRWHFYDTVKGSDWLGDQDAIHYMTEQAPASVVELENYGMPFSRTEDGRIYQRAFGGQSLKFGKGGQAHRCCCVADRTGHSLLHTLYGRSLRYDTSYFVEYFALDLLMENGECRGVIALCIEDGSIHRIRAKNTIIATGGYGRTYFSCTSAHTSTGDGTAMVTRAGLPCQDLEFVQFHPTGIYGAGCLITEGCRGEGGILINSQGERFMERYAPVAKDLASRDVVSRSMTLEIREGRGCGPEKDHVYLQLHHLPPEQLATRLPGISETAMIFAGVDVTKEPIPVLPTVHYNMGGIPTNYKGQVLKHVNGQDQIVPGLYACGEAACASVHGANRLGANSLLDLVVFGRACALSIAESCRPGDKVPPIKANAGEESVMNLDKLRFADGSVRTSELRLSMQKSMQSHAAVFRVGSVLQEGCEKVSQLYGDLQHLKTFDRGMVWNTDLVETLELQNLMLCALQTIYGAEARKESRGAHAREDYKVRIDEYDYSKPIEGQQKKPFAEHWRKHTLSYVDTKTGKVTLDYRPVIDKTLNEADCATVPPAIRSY
T1 sequence (P21913 31-282): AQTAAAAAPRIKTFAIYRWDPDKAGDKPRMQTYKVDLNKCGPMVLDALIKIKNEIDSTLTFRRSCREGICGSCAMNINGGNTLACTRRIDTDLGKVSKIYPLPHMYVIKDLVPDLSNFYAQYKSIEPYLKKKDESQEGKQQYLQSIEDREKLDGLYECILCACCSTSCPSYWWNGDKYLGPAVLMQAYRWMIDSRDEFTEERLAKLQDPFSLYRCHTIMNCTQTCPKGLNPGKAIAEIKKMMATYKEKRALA
T1 sequence (Q641Z9 1-169): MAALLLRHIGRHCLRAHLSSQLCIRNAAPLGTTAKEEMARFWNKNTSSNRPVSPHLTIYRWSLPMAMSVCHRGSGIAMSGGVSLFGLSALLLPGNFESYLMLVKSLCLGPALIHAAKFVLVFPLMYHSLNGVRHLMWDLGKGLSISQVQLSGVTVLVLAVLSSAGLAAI
T1 sequence (Q6PCT8 57-159): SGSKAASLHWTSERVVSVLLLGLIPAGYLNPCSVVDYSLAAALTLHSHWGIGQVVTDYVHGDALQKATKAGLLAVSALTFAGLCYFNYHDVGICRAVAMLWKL

As to `O=CN1CCc2c([nH]c3ccccc23)C1C(Br)(Br)Br` (racemic) [N-Formyl-TaBro], in assay [1] (setting [4]), the inhibition at 500 µM amounted to 83%.

With `FC(F)(F)C1=NCCc2c1[nH]c1ccccc21` [DDH-TaFlu, 1-Trifluormethyl-3,4-didehydro-β-carbolin], the inhibition at 250 µM at Succinat-Dehydrogenase (setting [5]) came to 20%.

Turning to `C=C(C)[C@H]1Cc2c(ccc3c2O[C@@H]2COc4cc(OC)c(OC)cc4[C@@H]2C3=O)O1` [Rotenon, reference compound], the “Enzymaktivität (nmol/min/mg Protein)” value in assay [2] came out at 5.7 nmol/min/mg Protein; in assay [1], 4.2 nmol/min/mg Protein.

For `O=C(N1CCc2c([nH]c3ccccc23)C1C(Cl)(Cl)Cl)C(Cl)(Cl)Cl` (racemic) [N-Trichloracetyl-TaClo], in assay [1] (setting [4]), the inhibition at 500 µM amounted to 90%.

Turning to `CCN1CCc2c([nH]c3ccccc23)C1C(Cl)(Cl)Cl` (racemic) [N-Ethyl-TaClo], the inhibition at 500 µM at Succinat-Dehydrogenase (setting [6]) was 75%.

As to `ClC(Cl)(Cl)C1c2[nH]c3ccccc3c2CCN1Cc1ccccc1` (racemic) [N-Bzl-TaClo], at Succinat-Dehydrogenase (setting [5]), the inhibition at 250 µM was found to be 55%.

Turning to `C=CCN1CCc2c([nH]c3ccccc23)C1C(Cl)(Cl)Cl` (racemic) [N-Allyl-TaClo], the inhibition at 500 µM at Succinat-Dehydrogenase (setting [6]) was no less than 100%.

Turning to `CN1CCc2c([nH]c3ccccc23)C1C(Cl)(Cl)Cl` (racemic) [N-Me-TaClo], the inhibition at 250 µM in assay [2] (250 µM N-Me-TaClo, SMP's aus Rattenleber, read-out: Hemmung der Reaktion (NADH-Cytochrom-c-Reduktase-Test)) was 100%; in assay [2] (NADH-Cytochrom-c-Reduktase, 250 µM, Rattenhirn-Homogenate, read-out: Inhibierung bei 250 µM N-Me-TaClo), 70%; in assay [1] (250 µM N-Me-TaClo, SMP's aus Rattenleber, read-out: Hemmung der Ubichinon-Reduktion), 100%; in assay [1] (NADH-Ubichinon-1-Reduktase, 250 µM, Rattenhirn-Homogenate, read-out: Inhibierung bei 250 µM N-Me-TaClo), 100%; on Succinat-Dehydrogenase (Succinat-Dehydrogenase, 250 µM, read-out: Inhibierung bei 250 µM N-Me-TaClo), 100%; on Succinat-Dehydrogenase (setting [5]), no less than 100%. Also, the inhibition at 250 µM on NADH-Oxidase (NADH-Oxidase, 250 µM, Rattenhirn-Homogenate, read-out: Inhibierung bei 250 µM N-Me-TaClo) stood at 0%. Moreover, in assay [3] (250 µM N-Me-TaClo, SMP's aus Rattenleber), the “Hemmung der Reaktion (Succinat-Cytochrom-c-Reduktase-Test)” value was determined as 100 proz. Besides, in assay [3] (Succinat-Cytochrom-c-Reduktase, 250 µM, Rattenhirn-Homogenate), the “Inhibierung bei 250 µM N-Me-TaClo” value was found to be 80%.

On to `COC(=O)C1Cc2c([nH]c3ccccc23)C(C(Cl)(Cl)Cl)N1Cc1ccccc1` (stereo not shown) [N-Bzl-3-COOMe-TaClo], for which the inhibition at 500 µM at Succinat-Dehydrogenase (setting [6]) worked out at 60%.

Regarding `ClC(Cl)=C1NCCc2c1[nH]c1ccccc21` [Dichlormethylen-TaClo], the inhibition at 250 µM on Succinat-Dehydrogenase (setting [5]) was found to be 40%.

Take `O=C(CCl)N1CCc2c([nH]c3ccccc23)C1C(Cl)(Cl)Cl` (racemic) [N-Monochloracetyl-TaClo]: in assay [1] (setting [4]), the inhibition at 500 µM stood at 95%.

Take `O=CN1CCc2c([nH]c3ccccc23)C1=C(Br)Br` [N-Formyl-dibrommethylen-TaBro]: the inhibition at 500 µM in assay [1] (setting [4]) was no less than 100%.

As for `COC(=O)[C@@H]1Cc2c([nH]c3ccccc23)C(C(Cl)(Cl)Cl)N1` (stereo partly shown) [3-COOMe-TaClo], the inhibition at 500 µM at Succinat-Dehydrogenase (setting [6]) amounted to 75%.

Regarding `ClC(Cl)(Cl)C1NCCc2c1[nH]c1ccccc21` (racemic) [TaClo, 1-Trichlormethyl-1,2,3,4-tetrahydro-β-carbolin], the “Enzymaktivität (nmol/min/mg Protein)” value in assay [2] (NADH Cyt c Reduktase, 500 µM TaClo, Rattenhirn-Homogenate, Kontrolle 24.6) was 14.7 nmol/min/mg Protein; in assay [1] (NADH CoQ1 Reduktase, 500 µM TaClo, Rattenhirn-Homogenate, Kontrolle 10.9) it was 1.6 nmol/min/mg Protein; on Succinat-Dehydrogenase (Succinat Dehydrogenase, 500 µM TaClo, Kontrolle 29.6), 30.1 nmol/min/mg Protein; at NADH-Oxidase (NADH-Oxidase, 500 µM TaClo, Rattenhirn-Homogenate, Kontrolle 141.0) it was 138.0 nmol/min/mg Protein; at Cytochrom c Oxidase (Kontrolle 45.8), 38.9 nmol/min/mg Protein; in assay [3] (Succinat Cyt c Reduktase, 500 µM TaClo, Rattenhirn-Homogenate, Kontrolle 11.9) it was 9.2 nmol/min/mg Protein. Besides, the inhibition at 500 µM in assay [2] (setting [7]) worked out at 40%; in assay [1] (setting [7]), 85%; on Succinat-Dehydrogenase (Succinat Dehydrogenase, 500 µM TaClo, read-out: Inhibierungsrate durch TaClo), 0%; at Succinat-Dehydrogenase (setting [6]), 30%; at NADH-Oxidase (setting [7]) it was 0%; on Cytochrom c Oxidase (setting [7]), 20%. Besides, the “Einfluß auf die NADH-Oxidation” value at NADH-Oxidase (result in words, s. Tabelle 2) was “beeinflußt jedoch nicht die NADH-Oxidation”. Moreover, in assay [3] (Succinat Cyt c Reduktase, 500 µM TaClo, Rattenhirn-Homogenate), the “Inhibierungsrate durch TaClo” value was determined as 22%.

As for `CC(=O)N1CCc2c([nH]c3ccccc23)C1C(Cl)(Cl)Cl` (racemic) [N-Acetyl-TaClo], the inhibition at 500 µM in assay [1] (setting [4]) is 20%.
